According to publication PMC7738871, “Covalent modification of Keap1 at Cys77 and Cys434 by pubescenoside a suppresses oxidative stress-induced NLRP3 inflammasome activation in myocardial ischemia-reperfusion injury” (Theranostics, 2021):

Experiments:
[1] = biological target: T1, Keap1 C226S (Homo sapiens, UniProt Q14145, C226S); experiment: ITC titration of PBA with Keap1-C226S; type: binding; conditions: 25 ℃
T1 construct: His (N); made in house; host or cells: E. coli BL21 (DE3)
Description: The Keap1 was amplified by PCR using a human cDNA library, and was subcloned into the vector pET28-TEV, which contained one tobacco etch virus (TEV) protease cleavage site at the upstream multiple cloning site. The protein was expressed in E. coli BL21 (DE3) cells and incubated at 37 °C until the OD600 value reached 0.6, using 0.2 mM isopropyl β-D-1-thiogalactopyranoside (IPTG) overnight induction at 18 °C. The cells were isolated by centrifugation, resuspended in ice-cold lysis buffer and lysed by cryogenic overpressure cell breaker at 1,200 psi. The lysates were centrifuged for 60 min at 14,000 rpm to obtain the supernatant. Gravity flow purification of Keap1 protein was obtained at room temperature using 1 mL of Ni-NTA and eluted in buffer containing 250 mM imidazole, followed by 1 mL of HiTrap QHP for the second step purification. The final protein was purified and validated by Superdex 200 10/300GL resin.
The mutant plasmid DNA was obtained by PCR. The PCR products were cleaved by DpnI restriction enzymes. The restriction endonuclease-cleaved mixture was subsequently transformed into E. coli DH5α. Colonies were evaluated by colony PCR and sequenced. The mutant plasmid was transformed into E. coli BL21 (DE3) after successful sequencing. The steps for expression and purification of all recombinants were described above.
Isothermal calorimetry (ITC) titration experiments were performed at 25 °C. WT Keap1, Keap1 mutants and PBA were dissolved in binding buffer (40 mM Tris-HCl pH 8.0, 250 mM NaCl). In a typical experiment, 60 μL of PBA (1 mM) was injected 19 times at 2-min intervals from a stirring syringe into the sample cell containing 300 μL of WT protein or mutants (30 μM). The first injection was 0.4 μL of PBA, and the subsequent 18 injections were 2 μL each time. The site-binding models were determined by using MicroCal Origin software.

[2] = test system: recombinant Keap1 mutant proteins; experiment: Pull-down of recombinant Keap1 mutants with PBA-Sepharose 4B; type: binding, human; conditions: cysteine to serine mutants
Description: PBA-Sepharose 4B beads were created by dissolving PBA in coupling buffer (100 mM NaHCO3, pH 8.3, 0.5 M NaCl). After washing with 1 mM HCl medium, Sepharose 4B beads were mixed with PBA coupling buffer and slowly rotated overnight at 4 °C. Excess PBA was washed away with coupling buffer and any remaining active groups were blocked with 0.1 M Tris-HCl buffer (pH 8.0) for 2 h. The medium was then washed with 0.1 M acetate buffer (pH 4.0) containing 0.5 M NaCl followed by a wash with 0.1 M Tris-HCl (pH 8.0) that also contained 0.5 M NaCl. PBA-Sepharose 4B beads were ready for use in the pull-down assay. The RAW264.7 cellular supernatant fraction (600 µg) was incubated with either PBA-Sepharose 4B or Sepharose 4B as a negative control in reaction buffer (50 mM Tris-HCl, pH 7.5, 5 mM EDTA, 150 mM NaCl, 1 mM DTT, 0.01% NP-40, 2 µg/mL of BSA, 0.02 mM PMSF, 1 × protease inhibitor cocktail). After incubation with gentle rocking overnight at 4 °C, the beads were washed five times with wash buffer (50 mM Tris-HCl, pH 7.5, 5 mM EDTA, 150 mM NaCl, 1 mM DTT, 0.01% NP-40, 0.02 mM PMSF) and proteins bound to the beads were analyzed by immunoblotting assay with a Keap1 antibody.
The mutant plasmid DNA was obtained by PCR. The PCR products were cleaved by DpnI restriction enzymes. […] Colonies were evaluated by colony PCR and sequenced. […]

[3] = test system: primary mouse cardiomyocytes transfected with C77S and C434S-Keap1; experiment: OGD/R viability in Keap1-mutant-transfected primary cardiomyocytes; type: cell-based; conditions: Cys77S and Cys434S-Keap1 mutant vectors, MTT
Description: Figure 6 PBA suppresses Keap1-mediated ubiquitination of Nrf2 by disrupting the interaction between Cul3 and Keap1. (A and B) PBA suppressed Nrf2 ubiquitination in a Keap1-Cys77 and C434-dependent manner. First, 293T cells were transfected with WT-Keap1 or C77S and C434S-Keap1, Myc-Nrf2, and Ub plasmids for 24 h and treated with 30 μM PBA. The cell lysates were immunoprecipitated using anti-Myc beads, and the ubiquitination level was evaluated using the anti-Ub antibody. (C and D) PBA induced the dissociation of the Nrf2-Keap1 complex. Then, 293T cells were cotransfected with WT-Keap1 and Flag-Nrf2 plasmids for 24 h and treated with 30 μM PBA for 12 h. The cell lysates were immunoprecipitated with the anti-Flag antibody, and the level of Nrf2 was assessed using the anti-Nrf2 antibody. (E and F) PBA disrupted the interaction between Cul3 and Keap1. […] The cell lysates were immunoprecipitated with the anti-Flag antibody, and the level of Cul3 was measured using the anti-Cul3 antibody. #p < 0.05, ##p < 0.01, ###p < 0.001, the control vs DMSO; *p < 0.05,**p < 0.01, ***p < 0.001, PBA or tBHQ vs DMSO. […] Cell viability was measured by MTT assays. #p < 0.05, ###p < 0.001, the control vs OGD/R; **p < 0.01, ***p < 0.001, OGD/R+PBA vs OGD/R.
Cell viability was determined by MTT assays. […] And the solution was measured at the absorbance of 490 nm by a spectrophotometer (Thermo Fisher Scientific, MA, USA). […]

T1 sequence (Q14145 whole entry C226S): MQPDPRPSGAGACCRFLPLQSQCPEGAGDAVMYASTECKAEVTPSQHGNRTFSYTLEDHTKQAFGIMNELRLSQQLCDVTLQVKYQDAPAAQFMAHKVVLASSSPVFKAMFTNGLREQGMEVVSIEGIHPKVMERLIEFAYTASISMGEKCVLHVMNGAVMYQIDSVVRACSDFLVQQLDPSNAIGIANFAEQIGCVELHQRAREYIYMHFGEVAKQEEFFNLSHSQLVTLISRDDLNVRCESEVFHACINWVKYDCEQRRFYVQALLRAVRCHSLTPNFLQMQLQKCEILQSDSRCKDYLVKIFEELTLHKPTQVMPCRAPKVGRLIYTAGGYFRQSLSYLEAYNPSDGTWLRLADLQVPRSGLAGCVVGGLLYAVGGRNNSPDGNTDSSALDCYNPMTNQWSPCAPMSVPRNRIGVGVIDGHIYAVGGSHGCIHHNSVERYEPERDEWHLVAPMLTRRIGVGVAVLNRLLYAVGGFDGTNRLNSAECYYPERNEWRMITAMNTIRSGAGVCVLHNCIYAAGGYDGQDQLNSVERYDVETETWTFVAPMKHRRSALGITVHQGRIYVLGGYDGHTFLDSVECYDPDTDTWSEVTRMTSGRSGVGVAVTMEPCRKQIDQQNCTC

- Kd [1]: 8.12 µM
- T△S [1]: 1.84 ± 0.00 kcal/mol
- △G [1]: -6.95 ± 0.00 kcal/mol
- △H [1]: -5.11 ± 0.279 kcal/mol
- binding of Keap1 mutants of Cys434, Cys77, Cys23 and Cys38 (pull-down) [2]: lost the capacity to bind
- binding of other Keap1 mutants (pull-down) [2]: retained their high binding affinity
SMILES: C=C(COC(=O)C=Cc1ccc(O)c(O)c1)C(O)COC1OC(CO)C(O)C(O)C1O (stereo not shown) [PBA, pubescenoside A]
- protective effect against OGD/R injury with mutant Keap1 [3]: blocked the protective effect
